Like-named read-outs stand apart in the source and are kept apart here.
Tests used:
recombinant human HPK1 = recombinant human HPK1 (Homo sapiens (Human), UniProt Q92918); assay: HPK1 kinase assay (ADP-Glo); format: biochemical; settings: 25 μM ATP, MBP substrate
In short: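 Activity was read as ADP formed, detected by ADP-Glo luminescence after the reaction of 5 ng recombinant human HPK1 with MBP and ATP (stocks 0.5 μg/μl and 25 μM) for 40 min at 30 °C. Buffer was Tris pH 7.5 with MgCl2, BSA and DTT, with compound in 0.5% DMSO. IC50 came from inhibition curves.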

[1] = test system: human peripheral blood pan T cells; assay: IFNγ and IL-2 analysis of human peripheral pan T cells; format: cell-based; settings: T-cell, CD3/CD28 bead stimulation, 100 nM Prostaglandin E2, 24 hr
Procedure: IFNγ and IL-2 Analysis of Human Peripheral Pan T Cells
Human peripheral blood pan T cells were purchased from STEMCELL™ Technologies Inc. Human peripheral blood pan T cells were thawed and suspended in DMEM media (10% FBS and 10 Penicillin/Streptomycin). 8×10^4 T cells were seeded in 96-well plate and incubated with various concentration of compounds and 100 nM Prostaglandin E2 for 1 hr. T cells were stimulated with Dynabeads Human T-Activator CD3/CD28 (Life Technologies) at a 1:3 cells: beads ratio. […] Data were analyzed with an MESO Quickplex SQ120 (Mesoscale Discovery).
In Table 3, the values represent + for >1000 nM, ++ 200-1,000 nM, +++ for <200 nM and − for not determined.

[2] = IFNγ secretion, read-out: IFNγ (EC50)
[3] = IL-2 secretion, read-out: IL-2 (EC50)

Chain of recombinant human HPK1 (Q92918 whole entry): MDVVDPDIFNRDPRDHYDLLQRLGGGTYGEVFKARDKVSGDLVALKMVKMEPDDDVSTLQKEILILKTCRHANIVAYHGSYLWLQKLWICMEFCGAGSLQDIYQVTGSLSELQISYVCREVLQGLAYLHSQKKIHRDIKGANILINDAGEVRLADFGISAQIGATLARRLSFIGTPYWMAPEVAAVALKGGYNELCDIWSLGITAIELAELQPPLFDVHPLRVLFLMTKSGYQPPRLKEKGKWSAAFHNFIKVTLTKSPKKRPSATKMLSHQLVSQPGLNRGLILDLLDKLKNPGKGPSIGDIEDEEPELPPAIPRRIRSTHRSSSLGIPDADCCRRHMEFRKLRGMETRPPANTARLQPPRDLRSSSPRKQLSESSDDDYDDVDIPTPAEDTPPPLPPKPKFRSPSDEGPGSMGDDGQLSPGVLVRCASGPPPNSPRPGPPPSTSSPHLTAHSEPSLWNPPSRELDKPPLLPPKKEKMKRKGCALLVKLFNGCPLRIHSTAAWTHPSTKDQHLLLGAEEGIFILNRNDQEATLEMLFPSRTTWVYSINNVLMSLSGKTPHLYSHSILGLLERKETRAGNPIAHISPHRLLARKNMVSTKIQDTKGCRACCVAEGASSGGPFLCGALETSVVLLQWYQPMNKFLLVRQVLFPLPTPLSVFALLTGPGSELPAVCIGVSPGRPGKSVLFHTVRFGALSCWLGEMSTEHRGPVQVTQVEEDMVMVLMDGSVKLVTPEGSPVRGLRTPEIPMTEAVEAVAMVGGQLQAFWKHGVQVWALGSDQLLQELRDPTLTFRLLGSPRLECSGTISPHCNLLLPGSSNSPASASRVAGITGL

Question: `Cc1c(F)c(N(C)C)c2[nH]ncc2c1-c1ccc2nc(NC(=O)[C@@H]3C[C@@H]3F)sc2c1` [Example 104, (1S,2S)-N-(6-(7-(dimethylamino)-6-fluoro-5-methyl-1H-indazol-4-yl)benzo[d]thiazol-2-yl)-2-fluorocyclopropane-1-carboxamide] was tested. Which IC50 (recombinant human HPK1) did it give?
Answer: Its IC50 is less than 0.1 µM.

Question: And the EC50 [1, 2]?
Answer: The EC50 was 0.2 to 1 µM.

Question: What about the EC50 [1, 3] of the same compound?
Answer: Its EC50 is greater than 1 µM.

Question: How did the IC50 (recombinant human HPK1) turn out when `CSc1c(F)cc2[nH]ncc2c1-c1ccc2nc(NC(=O)[C@@H]3C[C@@H]3F)sc2c1` [Example 105, (1S,2S)-2-fluoro-N-(6-(6-fluoro-5-(methylthio)-1H-indazol-4-yl)benzo[d]thiazol-2-yl)cyclopropane-1-carboxamide] was run?
Answer: The IC50 was less than 0.1 µM.

Question: And the EC50 [1, 2]?
Answer: The EC50 was 0.2 to 1 µM.

Question: And the EC50 [1, 3]?
Answer: The EC50 was greater than 1 µM.

Question: Which results are given for `CCOc1c(F)c(CC)c(-c2ccc3nc(NC(=O)[C@@H]4C[C@@H]4F)sc3c2)c2cn[nH]c12` [Example 107, (1S,2S)-N-(6-(7-ethoxy-5-ethyl-6-fluoro-1H-indazol-4-yl)benzo[d]thiazol-2-yl)-2-fluorocyclopropane-1-carboxamide]?
Answer: IC50 (recombinant human HPK1): < 0.1 µM; EC50 [1, 2]: 0.2 to 1 µM

Question: With `CSc1c(F)c(N(C)C)c2[nH]ncc2c1-c1ccc2nc(NC(=O)[C@@H]3C[C@@H]3F)sc2c1` [Example 110, (1S,2S)-N-(6-(7-(dimethylamino)-6-fluoro-5-(methylthio)-1H-indazol-4-yl)benzo[d]thiazol-2-yl)-2-fluorocyclopropane-1-carboxamide] as the compound, how does the IC50 (recombinant human HPK1) read?
Answer: Its IC50 is less than 0.1 µM.

Question: And the EC50 [1, 2]?
Answer: Its EC50 is less than 0.2 µM.

Question: How did the EC50 [1, 2] turn out when `CSc1c(F)c(SC)c2[nH]ncc2c1-c1ccc2nc(NC(=O)[C@@H]3C[C@@H]3F)sc2c1` [Example 111, (1S,2S)-2-fluoro-N-(6-(6-fluoro-5,7-bis(methylthio)-1H-indazol-4-yl)benzo[d]thiazol-2-yl)cyclopropane-1-carboxamide] was run?
Answer: The EC50 was 0.2 to 1 µM.

Question: With `CCOc1c(F)c(SC)c(-c2ccc3nc(NC(=O)[C@@H]4C[C@@H]4F)sc3c2)c2cn[nH]c12` [Example 118, (1S,2S)-N-(6-(7-ethoxy-6-fluoro-5-(methylthio)-1H-indazol-4-yl)benzo[d]thiazol-2-yl)-2-fluorocyclopropane-1-carboxamide] as the compound, how does the IC50 (recombinant human HPK1) read?
Answer: The IC50 was less than 0.1 µM.

Question: And the EC50 [1, 2]?
Answer: Its EC50 is less than 0.2 µM.

Question: For `CC(=O)N(C)c1c(F)c(Cl)c(-c2ccc3nc(NC(=O)[C@@H]4C[C@@H]4F)sc3c2)c2cn[nH]c12` [Example 123, (1S,2S)-N-(6-(5-chloro-6-fluoro-7-(N-methylacetamido)-1H-indazol-4-yl)benzo[d]thiazol-2-yl)-2-fluorocyclopropane-1-carboxamide], which IC50 (recombinant human HPK1) is on record?
Answer: Its IC50 is less than 0.1 µM.

Question: What about the EC50 [1, 2] of the same compound?
Answer: The EC50 was 0.2 to 1 µM.

Question: And the EC50 [1, 3]?
Answer: The EC50 was greater than 1 µM.

Question: Which IC50 (recombinant human HPK1) does the source give for `CN(C)C(=O)c1c(F)c(Cl)c(-c2ccc3nc(NC(=O)[C@@H]4C[C@@H]4F)sc3c2)c2cn[nH]c12` [Example 125, 5-chloro-6-fluoro-4-(2-((1S,2S)-2-fluorocyclopropane-1-carboxamido)benzo[d]thiazol-6-yl)-N,N-dimethyl-1H-indazole-7-carboxamide] here?
Answer: The IC50 was less than 0.1 µM.

Question: And the EC50 [1, 2]?
Answer: Its EC50 is less than 0.2 µM.

Question: For `Cc1c(F)c(C(=O)N(C)C)c2[nH]ncc2c1-c1ccc2nc(NC(=O)[C@@H]3C[C@@H]3F)sc2c1` [Example 134, 6-fluoro-4-(2-((1S,2S)-2-fluorocyclopropane-1-carboxamido)benzo[d]thiazol-6-yl)-N,N,5-trimethyl-1H-indazole-7-carboxamide], which IC50 (recombinant human HPK1) is on record?
Answer: The IC50 was less than 0.1 µM.

Question: And the EC50 [1, 2]?
Answer: The EC50 was less than 0.2 µM.

Question: And the EC50 [1, 3]?
Answer: Its EC50 is greater than 1 µM.

Question: With `CCc1c(F)cc2[nH]ncc2c1-c1ccc2nc(NC(=O)[C@@H]3C[C@@H]3F)sc2n1` [Example 152, (1S,2S)—N-(5-(5-ethyl-6-fluoro-1H-indazol-4-yl)thiazolo[5,4-b]pyridin-2-yl)-2-fluorocyclopropane-1-carboxamide] as the compound, how does the IC50 (recombinant human HPK1) read?
Answer: Its IC50 is less than 0.1 µM.

Question: What about the EC50 [1, 2] of the same compound?
Answer: The EC50 was 0.2 to 1 µM.

Question: And the EC50 [1, 3]?
Answer: Its EC50 is 0.2 to 1 µM.

Question: With `CSc1c(F)c(C)c(-c2ccc3nc(NC(=O)[C@@H]4C[C@@H]4F)sc3n2)c2cn[nH]c12` [Example 173, (1S,2S)-2-fluoro-N-(5-(6-fluoro-5-methyl-7-(methylthio)-1H-indazol-4-yl)thiazolo[5,4-b]pyridin-2-yl)cyclopropane-1-carboxamide] as the compound, how does the EC50 [1, 2] read?
Answer: Its EC50 is 0.2 to 1 µM.

Question: `CCN(C)c1c(F)c(Cl)c(-c2ccc3nc(NC(=O)[C@@H]4C[C@@H]4F)sc3n2)c2cn[nH]c12` [Example 196, (1S,2S)-N-(5-(5-chloro-7-(ethyl(methyl)amino)-6-fluoro-1H-indazol-4-yl)thiazolo[5,4-b]pyridin-2-yl)-2-fluorocyclopropane-1-carboxamide] was tested. Which EC50 [1, 2] did it give?
Answer: The EC50 was 0.2 to 1 µM.

Question: Which EC50 [1, 2] does the source give for `CCN(C)c1c(F)c(C)c(-c2ccc3nc(NC(=O)[C@@H]4C[C@@H]4F)cn3c2)c2cn[nH]c12` [Example 330, (1S,2S)-N-(6-(7-(ethyl(methyl)amino)-6-fluoro-5-methyl-1H-indazol-4-yl)imidazo[1,2-a]pyridin-2-yl)-2-fluorocyclopropane-1-carboxamide] here?
Answer: Its EC50 is 0.2 to 1 µM.

Question: And the EC50 [1, 3]?
Answer: Its EC50 is 0.2 to 1 µM.

Question: How did the EC50 [1, 2] turn out when `CC(=O)N(C)c1c(F)c(C)c(-c2ccn3nc(NC(=O)[C@@H]4C[C@@H]4F)cc3c2)c2cn[nH]c12` [Example 550, (1S,2S)-2-fluoro-N-(5-(6-fluoro-5-methyl-7-(N-methylacetamido)-1H-indazol-4-yl)pyrazolo[1,5-a]pyridin-2-yl)cyclopropane-1-carboxamide] was run?
Answer: Its EC50 is 0.2 to 1 µM.

Question: What about the EC50 [1, 3] of the same compound?
Answer: The EC50 was 0.2 to 1 µM.

Question: Which EC50 [1, 2] does the source give for `CSc1c(F)c(C)c(-c2ccn3nc(NC(=O)C4CC4)cc3c2)c2cn[nH]c12` [Example 562, N-(5-(6-fluoro-5-methyl-7-(methylthio)-1H-indazol-4-yl)pyrazolo[1,5-a]pyridin-2-yl)cyclopropanecarboxamide] here?
Answer: Its EC50 is 0.2 to 1 µM.

Question: For `CSc1c(F)c(C)c(-c2ccn3nc(NC(=O)[C@H]4C[C@H]4F)cc3c2)c2cn[nH]c12` [Example 574, (1R,2R)-2-fluoro-N-(5-(6-fluoro-5-methyl-7-(methylthio)-1H-indazol-4-yl)pyrazolo[1,5-a]pyridin-2-yl)cyclopropane-1-carboxamide], which EC50 [1, 2] is on record?
Answer: Its EC50 is 0.2 to 1 µM.

Question: And the EC50 [1, 3]?
Answer: Its EC50 is 0.2 to 1 µM.

Question: `O=C(Nc1cc2cc(-c3c(Cl)c(F)c(C4CC(O)CO4)c4[nH]ncc34)ccn2n1)[C@@H]1C[C@@H]1F` (stereo partly drawn) [Example 658, (1S,2S)-N-(5-(5-chloro-6-fluoro-7-(4-hydroxytetrahydrofuran-2-yl)-1H-indazol-4-yl)pyrazolo[1,5-a]pyridin-2-yl)-2-fluorocyclopropane-1-carboxamide] was tested. Which IC50 (recombinant human HPK1) did it give?
Answer: The IC50 was less than 0.1 µM.

Question: How did the IC50 (recombinant human HPK1) turn out when `CC(NC=O)c1c(F)c(Cl)c(-c2ccn3nc(NC(=O)[C@@H]4C[C@@H]4F)cc3c2)c2cn[nH]c12` (stereo partly drawn) [Example 659, (1S,2S)-N-(5-(5-chloro-6-fluoro-7-(1-formamidoethyl)-1H-indazol-4-yl)pyrazolo[1,5-a]pyridin-2-yl)-2-fluorocyclopropane-1-carboxamide] was run?
Answer: The IC50 was less than 0.1 µM.

Question: For `CCC(=O)NC(C)c1c(F)c(Cl)c(-c2ccn3nc(NC(=O)[C@@H]4C[C@@H]4F)cc3c2)c2cn[nH]c12` (stereo partly drawn) [Example 660, (1S,2S)-N-(5-(5-chloro-6-fluoro-7-(1-propionamidoethyl)-1H-indazol-4-yl)pyrazolo[1,5-a]pyridin-2-yl)-2-fluorocyclopropane-1-carboxamide], which IC50 (recombinant human HPK1) is on record?
Answer: Its IC50 is less than 0.1 µM.

Question: `CC(NC(=O)C1CCC1)c1c(F)c(Cl)c(-c2ccn3nc(NC(=O)[C@@H]4C[C@@H]4F)cc3c2)c2cn[nH]c12` (stereo partly drawn) [Example 661, N-(1-(5-chloro-6-fluoro-4-(2-((1S,2S)-2-fluorocyclopropane-1-carboxamido)pyrazolo[1,5-a]pyridin-5-yl)-1H-indazol-7-yl)ethyl)cyclobutanecarboxamide] was tested. Which IC50 (recombinant human HPK1) did it give?
Answer: The IC50 was less than 0.1 µM.

Question: How did the IC50 (recombinant human HPK1) turn out when `CC(NC(=O)C(F)(F)F)c1c(F)c(Cl)c(-c2ccn3nc(NC(=O)[C@@H]4C[C@@H]4F)cc3c2)c2cn[nH]c12` (stereo partly drawn) [Example 662, (1S,2S)-N-(5-(5-chloro-6-fluoro-7-(1-(2,2,2-trifluoroacetamido)ethyl)-1H-indazol-4-yl)pyrazolo[1,5-a]pyridin-2-yl)-2-fluorocyclopropane-1-carboxamide] was run?
Answer: Its IC50 is less than 0.1 µM.

Question: With `CC(=O)NC(C)c1c(F)c(Cl)c(-c2ccn3nc(NC(=O)[C@@H]4C[C@@H]4F)cc3c2)c2cn[nH]c12` (stereo partly drawn) [Example 663, (1S,2S)-N-(5-(7-(1-acetamidoethyl)-5-chloro-6-fluoro-1H-indazol-4-yl)pyrazolo[1,5-a]pyridin-2-yl)-2-fluorocyclopropane-1-carboxamide] as the compound, how does the IC50 (recombinant human HPK1) read?
Answer: Its IC50 is less than 0.1 µM.

Question: Which IC50 (recombinant human HPK1) does the source give for `CNC(=O)N(C)c1c(F)c(Cl)c(-c2ccn3nc(NC(=O)[C@@H]4C[C@@H]4F)cc3c2)c2cn[nH]c12` [Example 664, (1S,2S)-N-(5-(5-chloro-7-(1,3-dimethylureido)-6-fluoro-1H-indazol-4-yl)pyrazolo[1,5-a]pyridin-2-yl)-2-fluorocyclopropane-1-carboxamide] here?
Answer: Its IC50 is less than 0.1 µM.

Question: How did the IC50 (recombinant human HPK1) turn out when `CC(NC(=O)C(F)F)c1c(F)c(Cl)c(-c2ccn3nc(NC(=O)[C@@H]4C[C@@H]4F)cc3c2)c2cn[nH]c12` (stereo partly drawn) [Example 665, (1S,2S)-N-(5-(5-chloro-7-(1-(2,2-difluoroacetamido)ethyl)-6-fluoro-1H-indazol-4-yl)pyrazolo[1,5-a]pyridin-2-yl)-2-fluorocyclopropane-1-carboxamide] was run?
Answer: Its IC50 is less than 0.1 µM.

Question: For `CO[C@H](C)[C@@H](OC)c1c(F)c(Cl)c(-c2ccn3nc(NC(=O)[C@@H]4C[C@@H]4F)cc3c2)c2cn[nH]c12` [Example 666, (1S,2S)-N-(5-(5-chloro-7-((1S,2R)-1,2-dimethoxypropyl)-6-fluoro-1H-indazol-4-yl)pyrazolo[1,5-a]pyridin-2-yl)-2-fluorocyclopropane-1-carboxamide], which IC50 (recombinant human HPK1) is on record?
Answer: Its IC50 is 0.101 to 0.5 µM.

Source: US11649255B2, “Indazoles as hematopoietic progenitor kinase 1 (HPK1) inhibitors and methods using same” (1st Biotherapeutics, Inc., priority 2020, dated 2023)
